This passage reports EC50, Emax and Ratio EC50 results from ChEMBL document CHEMBL5131447, “Discovery of orexin 2 receptor selective and dual orexin receptor agonists based on the tetralin structure: Switching of receptor selectivity by chirality on the tetralin ring” (Bioorg Med Chem Lett, 2022).

One assay concerns the target T1, Orexin receptor type 2 (Homo sapiens, UniProt O43614).
T1 sequence (O43614 whole entry): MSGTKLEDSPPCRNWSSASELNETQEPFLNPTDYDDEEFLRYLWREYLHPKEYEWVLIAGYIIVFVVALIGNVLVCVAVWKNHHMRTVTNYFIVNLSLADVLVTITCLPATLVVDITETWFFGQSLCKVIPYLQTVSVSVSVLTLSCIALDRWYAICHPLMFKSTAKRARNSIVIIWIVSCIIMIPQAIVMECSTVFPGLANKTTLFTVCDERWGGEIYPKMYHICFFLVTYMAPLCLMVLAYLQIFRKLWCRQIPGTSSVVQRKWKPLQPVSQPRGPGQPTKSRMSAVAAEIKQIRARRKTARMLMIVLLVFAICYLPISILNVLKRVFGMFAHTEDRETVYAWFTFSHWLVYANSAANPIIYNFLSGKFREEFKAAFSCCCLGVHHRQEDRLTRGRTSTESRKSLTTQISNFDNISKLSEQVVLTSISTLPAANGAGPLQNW
In words: Agonist activity at OX2R (unknown origin). The format is functional.

For assay [1], the target named is T2, Orexin/Hypocretin receptor type 1 (Homo sapiens, UniProt O43613).
T2 sequence (O43613 whole entry): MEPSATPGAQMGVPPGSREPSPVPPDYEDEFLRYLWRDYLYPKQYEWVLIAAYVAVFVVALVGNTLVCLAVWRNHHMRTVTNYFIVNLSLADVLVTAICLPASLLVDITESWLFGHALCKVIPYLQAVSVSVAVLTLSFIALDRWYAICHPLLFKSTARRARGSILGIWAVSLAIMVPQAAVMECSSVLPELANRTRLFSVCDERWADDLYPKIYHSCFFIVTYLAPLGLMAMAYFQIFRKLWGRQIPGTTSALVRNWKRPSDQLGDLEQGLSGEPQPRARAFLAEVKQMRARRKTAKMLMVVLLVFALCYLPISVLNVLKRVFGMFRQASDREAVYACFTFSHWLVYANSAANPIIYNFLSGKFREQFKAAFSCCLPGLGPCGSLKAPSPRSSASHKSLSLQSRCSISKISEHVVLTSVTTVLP
In words: Agonist activity at OX1R (unknown origin). Type of assay: functional.

Assay [2] concerns the target T3, Orexin/Hypocretin receptor type 1 (Homo sapiens) (UniProt O43613).
T3 sequence (whole entry): T2 sequence (O43613 whole entry)
In words: Agonist activity at OX1R (unknown origin) assessed as maximum efficacy at 10 uM relative to control. The format is functional.

The species entered for another assay is Homo sapiens. In words: Selectivity index, ratio of EC50 for agonist activity at OX1R (unknown origin) to EC50 for agonist activity at OX2R (unknown origin).
Assay [3] addresses T4, Orexin receptor type 2 (Homo sapiens) (UniProt O43614).
T4 sequence (whole entry): T1 sequence (O43614 whole entry)
In words: Agonist activity at OX2R (unknown origin) assessed as maximum efficacy at 10 uM relative to control. Type of assay: functional.

The EC50 is the midpoint of the concentration-response curve. A high value points to weaker potency. What is called Emax is the maximal effect, on the per cent scale that the assay sets.

For `COc1ccc(-c2cccc(C(=O)N(C)C)c2)cc1S(=O)(=O)Nc1ccc2c(c1)C(N(C)C(=O)C1CCCCC1)CCC2` (stereo not given), the EC50 at Orexin receptor type 2 was 837 nM; in assay [1], more than 10000 nM. Moreover, in assay [2] (filed as agonist), the Emax came to 44.3%.
As for `COc1cccc(CC(=O)OC2CCCc3ccc(NS(=O)(=O)c4cc(-c5cccc(C(=O)N(C)C)c5)ccc4OC)cc32)c1` (stereo not given), the half-maximal effective concentration (EC50) turned out to be 413 nM at Orexin receptor type 2 and 5780 nM in assay [1]. In addition, the Ratio EC50 in the assay listed under Homo sapiens was 14.
On to `COc1cccc(CC(=O)N(C)[C@@H]2CCCc3ccc(NS(=O)(=O)c4cc(-c5cccc(C(=O)N(C)C)c5)ccc4OC)cc32)c1`, for which the EC50 was determined as 0.579 nM on Orexin receptor type 2 and 13.5 nM in assay [1]. The Ratio EC50 in the assay filed under Homo sapiens was 23.3.
As to `CCOc1cccc(CC(=O)N(C)C2CCCc3ccc(NS(=O)(=O)c4cc(-c5cccc(C(=O)N(C)C)c5)ccc4OC)cc32)c1` (stereo not given), the EC50 on Orexin receptor type 2 turned out to be 2.14 nM; in assay [1], 55.3 nM. In the assay filed under Homo sapiens, the Ratio EC50 is 25.8.
`COc1ccc(-c2cccc(C(=O)N(C)C)c2)cc1S(=O)(=O)Nc1ccc2c(c1)C(N(C)C(=O)Cc1cccc(O)c1)CCC2` (stereo not given): the EC50 on Orexin receptor type 2 was 57 nM; in assay [1], 713 nM. In addition, the Ratio EC50 in the assay listed under Homo sapiens was found to be 12.5.
Regarding `COc1ccc(-c2cccc(C(=O)N(C)C)c2)cc1S(=O)(=O)Nc1ccc2c(c1)C(N(C)C(=O)Nc1ccccc1)CCC2` (stereo not given), the EC50 in assay [1] stood at 3250 nM. That is a single-digit micromolar value.
`COC(=O)N1CCC[C@H](NS(C)(=O)=O)[C@@H]1CO[C@H]1CC[C@@H](c2ccccc2)CC1` [DANAVOREXTON] came in with an EC50 in assay [1] of more than 30000 nM.
With `COc1ccc(-c2cccc(C(=O)N(C)C)c2)cc1S(=O)(=O)Nc1ccc2c(c1)C(N(C)C(=O)Cc1cccc(F)c1)CCC2` (stereo not given), the EC50 came out at 6.5 nM on Orexin receptor type 2 and 86.3 nM in assay [1]. The Ratio EC50 in the assay filed under Homo sapiens was determined as 13.3.
On to `COc1cccc(CC(=O)NC2CCCc3ccc(NS(=O)(=O)c4cc(-c5cccc(C(=O)N(C)C)c5)ccc4OC)cc32)c1` (stereo not given), for which the EC50 at Orexin receptor type 2 worked out at 26.6 nM; in assay [1], 229 nM. Also, in the assay filed under Homo sapiens, the Ratio EC50 worked out at 8.61.
As for `CCCN(C(=O)Cc1cccc(OC)c1)C1CCCc2ccc(NS(=O)(=O)c3cc(-c4cccc(C(=O)N(C)C)c4)ccc3OC)cc21` (stereo not given), the results for the EC50 (at Orexin receptor type 2; in assay [1]) were 43.7 nM and 3920 nM, respectively. In addition, the Ratio EC50 in the assay listed under Homo sapiens worked out at 89.6.
On to `COc1ccccc1CC(=O)N(C)C1CCCc2ccc(NS(=O)(=O)c3cc(-c4cccc(C(=O)N(C)C)c4)ccc3OC)cc21` (stereo not given), for which the 50% effective concentration (EC50) is 3.59 nM on Orexin receptor type 2 and 92.2 nM in assay [1]. In the assay filed under Homo sapiens, the Ratio EC50 was 25.7.
For `COc1cccc(CC(=O)N(C)c2cccc3ccc(NS(=O)(=O)c4cc(-c5cccc(C(=O)N(C)C)c5)ccc4OC)cc23)c1`, the EC50 was 224 nM on Orexin receptor type 2 and 402 nM in assay [1]. Besides, the Ratio EC50 in the assay filed under Homo sapiens was 1.79.
Take H-MTLIGAAHNGSAQLLRQLRGQLGPPGSR-NH2: the Ratio EC50 in the assay filed under Homo sapiens was 41.7.
`COc1ccc(-c2cccc(C(=O)N(C)C)c2)cc1S(=O)(=O)Nc1ccc2c(c1)C(N(C)C(=O)CCc1ccccc1)CCC2` (stereo not given): the EC50 at Orexin receptor type 2 stood at 126 nM; in assay [1], 372 nM. Moreover, the Ratio EC50 in the assay filed under Homo sapiens was found to be 2.95.
As for `COc1ccc(CC(=O)N(C)C2CCCc3ccc(NS(=O)(=O)c4cc(-c5cccc(C(=O)N(C)C)c5)ccc4OC)cc32)cc1` (stereo not given), in assay [1], the EC50 worked out at 120 nM.
As for `COc1cccc(CC(=O)N(CC2CC2)C2CCCc3ccc(NS(=O)(=O)c4cc(-c5cccc(C(=O)N(C)C)c5)ccc4OC)cc32)c1` (stereo not given), the EC50 at Orexin receptor type 2 is 78.1 nM; in assay [1], more than 10000 nM. Moreover, the Emax in assay [2] was determined as 18.7%.
Consider `COc1cccc(CC(=O)N(C)C2CCCc3ccc(NS(=O)(=O)c4cc(-c5cccc(C(=O)N(C)C)c5)ccc4OC)cc32)c1` (racemic), for which the EC50 at Orexin receptor type 2 was 1.51 nM; in assay [1], 30.7 nM. In addition, in the assay filed under Homo sapiens, the Ratio EC50 is 20.3.
On to `CCCCC(=O)N(C)C1CCCc2ccc(NS(=O)(=O)c3cc(-c4cccc(C(=O)N(C)C)c4)ccc3OC)cc21` (stereo not given), for which the values for the concentration giving a half-maximal response (EC50) (at Orexin receptor type 2; in assay [1]) were 1920 nM and 4180 nM, respectively. Besides, in the assay listed under Homo sapiens, the Ratio EC50 was 2.18.
In the same order, the values of `COc1ccc(CN(C)C2CCc3ccc(NS(=O)(=O)c4cc(-c5cccc(C(=O)N(C)C)c5)ccc4OC)cc32)cc1` (stereo not given) are 3.27 nM, 287 nM and 87.8.
In the same order, the values of `COc1ccc(-c2cccc(C(=O)N(C)C)c2)cc1S(=O)(=O)Nc1ccc2c(c1)C(N(C)C(=O)Cc1cccnc1)CCC2` (stereo not given) are 151 nM, 1180 nM and 7.83.
In the same order, the values of `COc1ccc(-c2cccc(C(=O)N(C)C)c2)cc1S(=O)(=O)Nc1ccc2c(c1)C(N(C)C(=O)Cc1cccc(N(C)C)c1)CCC2` (stereo not given) are 5.59 nM, 89 nM and 15.9.
Regarding `CCN(C(=O)Cc1cccc(OC)c1)C1CCCc2ccc(NS(=O)(=O)c3cc(-c4cccc(C(=O)N(C)C)c4)ccc3OC)cc21` (stereo not given), the concentration for a half-maximal effect (EC50) on Orexin receptor type 2 was 19.3 nM; in assay [1] it was 356 nM. For the same compound, in the assay filed under Homo sapiens, the Ratio EC50 was 18.4.
`COc1cccc(CC(=O)N(C)c2cccc3c2CC(NS(=O)(=O)c2cc(-c4cccc(C(=O)N(C)C)c4)ccc2OC)CC3)c1` (stereo not given): the Emax in assay [3] amounted to 39.9%. Also, the concentration for a half-maximal effect (EC50) at Orexin receptor type 2 is more than 10000 nM; in assay [1], 5490 nM.
On to `COc1ccc(-c2cccc(C(=O)N(C)C)c2)cc1S(=O)(=O)Nc1ccc2c(c1)C(N(C)C(=O)Cc1ccccc1)CCC2` (stereo not given), for which the EC50 at Orexin receptor type 2 was determined as 10.7 nM; in assay [1] it was 112 nM. In addition, in the assay filed under Homo sapiens, the Ratio EC50 was 10.5.
`COc1ccc(-c2cccc(C(=O)N(C)C)c2)cc1S(=O)(=O)Nc1ccc2c(c1)C(N(C)C(=O)c1ccccc1)CCC2` (stereo not given): the EC50 at Orexin receptor type 2 was 618 nM; in assay [1], more than 10000 nM. Also, in assay [2], the Emax turned out to be 8.61%.
For the compound `COc1cccc(CC(=O)N(C)[C@H]2CCCc3ccc(NS(=O)(=O)c4cc(-c5cccc(C(=O)N(C)C)c5)ccc4OC)cc32)c1`, the EC50 on Orexin receptor type 2 worked out at 2.69 nM; in assay [1], 1240 nM. Further, the Ratio EC50 in the assay filed under Homo sapiens is 461.
